This is an account of results in US4677968A, “Methods of testing the reaction of various substances on living human skin” (priority 1986, dated 1987).

Structures are written as SMILES.

In data set [1] the test system is rat/rat skin sandwich flap (enzyme in the skin, deaminase). The experiment in a line: Metabolism of vidarabine in the rat/rat skin sandwich flap. The data set is classed as in vivo. The conditions noted are these: radiolabeled vidarabine on rat/rat flap, half-cell diffusion chamber. An excerpt: (§1) In this example, the procedure followed in Example 1 was followed to produce a rat/rat skin flap with accessible vasculature.
Test compounds were applied to either the host or the graft side of the flap. Test compounds in their vehicles were placed in either a 1.5 cm diameter well, prepared from a HolliSeal® skin barrier (a sheet of silicone material with adhesive on both sides) (Hollister Incorporated, Libertyville, IL), or in a half-cell diffusion chamber. The HolliSeal well is generally covered with Parafilm to prevent evaporation. […]
At the time of an experiment, with the animal under Ketamine anesthesia, the vessels supplying and draining the flap were exposed through an incision over the inguinal ligament. […] Concentration of radiolabeled compound, or its metabolities, in the blood were subsequently assessed by liquid scintillation counting and chromatographic techniques. Concentrations in the donor chamber were sampled periodically and quantitated in a similar manner.
Additional experiments, using an antiviral substance, vidarabine, have been performed to assess the metabolic activity in the skin. […] Accordingly, radiolabeled vidarabine was placed on a rat/rat skin sandwich flap system, and the amount of vidarabine and its metabolite, ara-H, was measured in the blood draining the flap.

Data set [2] relates to rat/rat flap (host skin / grafted skin). Put plainly: Absorption of benzoic acid across host vs. graft side of the rat/rat skin flap (flap blood sampling). Type of data set: in vivo.
Excerpt: Breeding pairs of nude rats were obtained from the Animal Production Facility of the National Cancer Institutes (Frederick, MD) and the colony was expanded by mating male rats homozygous for nude (athymic) with females heterozygous for nude.
(§2) A skin flap was generated by incising the abdominal skin of the rat along three sides. The donor STSG was trimmed to approximate the size of the epigastric flap and was placed in the wound, with the epidermis facing the abdominal musculature of the host. The overlying epigastric host skin was returned to its normal anatomic position. The epigastric skin and the STSG were sutured in place, creating a sandwich having a vascular pedicle sandwiched between the skin layers. This surgical procedure produced a flap which received essentially all of its blood from the superficial epigastric vessels.
(§3) Two weeks later, the femoral vessels distal to the origin of the superficial epigastric vessels were surgically isolated and divided. This manipulation maximized the blood flow from the femoral artery to the sandwich flap. The flap was raised and isolated on its neurovascular pedicle (a single artery, vein, and nerve) using the operating microscope.
(§4) The donor site on the rat's abdomen was covered with a STSG from another syngeneic animal and sutured in place. The flap, on its isolated vascular pedicle, was moved through a subcutaneous tunnel to the rat's dorsum, where it was sutured in place.
as §1
Test compounds were applied to either the host or the graft side of the flap. Test compounds in their vehicles were placed in either a 1.5 cm diameter well, prepared from a HolliSeal® skin barrier (a sheet of silicone material with adhesive on both sides) (Hollister Incorporated, Libertyville, IL), or in a half-cell diffusion chamber. The HolliSeal well is generally covered with Parafilm to prevent evaporation. The half-cell diffusion chamber has a 2.7 ml volume, an impeller to avoid problems of unstirred solutions, a water jacket to maintain a constant temperature, and a sampling port (Dependable Scientific Glass, Salt Lake City, UT).
In an initial series of experiments ^14 C benzoic acid, specific activity 58.6 mCi/mM (New England Nuclear, Boston MA) in phosphate buffered saline, was used in various concentrations in the HolliSeal well and the half-cell diffusion chamber. These experiments were designed to compare the absorption of benzoic acid across the host and graft sides of the flap as a means of validating the system. In another series of experiments 3H-vidarabine, specific activity 38 mCi/mg (2.7 ml), was added to a half-cell diffusion chamber to validate the flap as a system to study the metabolism of a drug as it crosses the skin. 3H-vidarabine, specific activity 38 mCi/mg (2.7 ml), was added to a half-cell diffusion chamber attached to rat/rat skin sandwich flaps, which had previously been tape-stripped.
At the time of an experiment, with the animal under Ketamine anesthesia, the vessels supplying and draining the flap were exposed through an incision over the inguinal ligament. A venotomy was made in the femoral vein proximal to the juncture of the superficial epigastric vein to sample flap blood. A venotomy was also made in the contralateral femoral view to sample systemic blood. The blood samples (approximately 40 ul) were collected periodically in heparinized microhematocrit capillary tubes. Concentration of radiolabeled compound, or its metabolities, in the blood were subsequently assessed by liquid scintillation counting and chromatographic techniques. Concentrations in the donor chamber were sampled periodically and quantitated in a similar manner. […]

The nature of data set [3]: Role of blood flow on percutaneous absorption (iontophoresis of phenylephrine), rat/rat flap. The data set is classed as in vivo. The settings on record: rat, in vivo, topical or ocular. Here is the method:
(§5) In this example the experimental procedure described in Example 1 was followed and a rat/rat flap was prepared using an identical procedure. The purpose of this example is to illustrate the role of blood flow on percutaneous absorption processes. In this example, blood flow was locally altered by iontophoresis of phenylephrine. […] The experiment was repeated two weeks later in a nontreated mode, i.e., no alteration in the microcirculation. […] In the situtaton where there is no alteration in the mircocirculation, peak levels occur in approximately 10 minutes. There results reveal that in situations, where compounds are rapidly absorbed, microcirculation to the skin is of critical importance.

Data set [4] has as its system rat/human flap (host side). Put plainly: Transdermal flux of benzoic acid in the rat/human flap, host side. Type of data set: in vivo.
Excerpt: as §2, §3, §4
Test compounds were applied to either the host or the graft side of the flap. […]
At the time of an experiment, with the animal under Ketamine anesthesia, the vessels supplying and draining the flap were exposed through an incision over the inguinal ligament. […] Concentration of radiolabeled compound, or its metabolities, in the blood were subsequently assessed by liquid scintillation counting and chromatographic techniques. Concentrations in the donor chamber were sampled periodically and quantitated in a similar manner. […]
In this experiment, 20 ug of ^14 C benzoic acid (4.5 uCi) in 95% ethanol was applied to the host side of the flap. […] Thereafter steady state was attained and flux was calculated to be 0.045 uCi/min/cm^2. […]

Data set [5] relates to skin flap (system described in Example 1). The experiment in a line: In vivo topical application of caffeine in the flap system of Example 1. The protocol: (§6) Compounds will frequently bind to the skin. Thus, after being absorbed through the outer protective layer, the stratum corneum, there is a possibility that the compound being tested will not be absorbed into the blood stream. It is anticipated that caffeine could be such a product. […] It is surprising to observe peak levels of caffeine within 30 minutes of topical application in the in vivo situation using the system described in Example 1. […] This confirmed the notion that there are binding sites of caffeine within the dermis.

Experiment in data set [6]: as above
The conditions noted are these: rat, topical or ocular; in vivo, topical application; read-out: time of peak levels of caffeine. Here is the method:
as §6

The test system of data set [7] is host rat graft or human graft (rat skin vs. human skin). The settings on record: in vivo.
Excerpt: The objective of this experiment was to determine differences in absorption, rat skin vs. human skin, rat graft vs. rat host skin, with a second agent, caffeine.
For data set [8], the system named is human skin. Put plainly: In vitro topical application of caffeine to human skin. Type of data set: in vitro ADME. Here is the method: as §6
Data set [9] deals with flap. The settings on record: rat, in vivo. From the text:
Following an intravenous injection of fluorescein, the amount of fluorescein that moves into tissue, and the rapidity with which it clears, depends upon the volume of blood to the area, the adequacy of venous drainage, and renal clearance. The influx and clearance of fluorescein, as measured with a surface hand-held dermofluorometer, has been evaluated as a function of time after occluding either the supplying artery or the draining vein.
Instrumentation used included: (1) Dermatome (Brown Electro-Dematome, Model 666, Zimmer Inc., Warsaw, IN) to generate the split-thickness skin grafts; (2) an operating microscope (Model OPMI 6-SD Carl Zeiss, West Germany) equipped with a fiberoptic illuminator (Model 310187, Dyonics, Andover, MA), to isolate the microvasculature supplying the skin flap; (3) Laser Doppler flow velocimeter (LD 5000, Med Pacific, Seattle, WA)--to noninvasively assess microcirculation of the skin; (4) electromagnetic blood flow transducer, C type 0.5 mm, 0.8 mm, and 1 mm in diameter (C&C INstruments, Culver City, CA)--to directly assess blood flow through the vessels supplying and draining the flap; and (5) a hand-held fiberoptic dermofluorometer (Fluoroscan-Santa Barbara Technology, Santa Barbara, CA), to assess blood flow by monitoring the appearance and clearance of fluorescein in the flap.

Data set [10] has as its system rat/rat flap. The experiment in a line: Role of blood flow on percutaneous absorption (iontophoresis of phenylephrine), rat/rat flap. The data set is classed as in vivo. The conditions noted are these: iontophoresis, circumscribed area. Here is the method:
as §5

The test system of data set [11] is rat/rat skin sandwich flap (enzyme in the skin, deaminase). The conditions noted are these: stated as known; cited from earlier work.
The mark [12] stands for this setting: grafted side, three weeks later.

Take `O=c1[nH]cnc2c1ncn2[C@@H]1O[C@H](CO)[C@@H](O)[C@@H]1O` [ara-H]: in data set [1], the “back-diffusion through the skin into the donor chamber” value is “diffused back through the skin into the donor chamber”.

Regarding `O=C(O)c1ccccc1` [benzoic acid], the “decrease in concentration in the donor well (time course)” value in [2] (donor well) is listed as “linear with time”. In addition, the “benzoic acid concentration in the donor well, start of decrease” value in data set [2] (donor well, decreasing from) was 2.2 µg/mL. In addition, in data set [2] (donor well, decreasing to), the “benzoic acid concentration in the donor well, end of decrease” value was 0.75 µg/mL. The “course of flux after the peak” value in [2] (setting [12]) is on record as “even more rapid decline”; in data set [2] (host skin), “decreased rapidly”. For the same molecule, the “peak flux across the grafted side” value in data set [2] (setting [12]) worked out at 2.2 uCi/min/cm^2. Moreover, the “time of peak flux” value in data set [2] (host skin, HolliSeal well, 0.52 uCi/ul in unbuffered water, 100 ul) was 30 min; in data set [4] (20 ug (4.5 uCi) in 95% ethanol) it was “one”; in data set [4] (half-cell diffusion chamber, maximal hydration of the skin), no more than 10 min. In [2] (host skin, assuming a blood flow of 1.5 ml/min), the “flux across host skin” value stood at 0.84 uCi/min/cm^2. The total amount absorbed in [2] (same for host and grafted side) turned out to be 1.04 µg·min/µL. Besides, the Tmax in [3] (decreased microcirculation (iontophoresis of phenylephrine), read-out: time of peak benzoic acid levels in flap blood (converted)) is roughly 140 min; in data set [3] (no alteration in the microcirculation, two weeks later, read-out: time of peak levels in flap blood (converted)), roughly 10 min. The same molecule registered a steady state flux in data set [4] (20 ug (4.5 uCi) in 95% ethanol) of 0.045 uCi/min/cm^2.

As for `Cn1c(=O)c2c(ncn2C)n(C)c1=O` [caffeine], the “effect of a second dose on absorption” value in data set [5] (in vivo, two doses) is on record as “greater than predicted absorption”; in data set [8] (two doses) it was “did not alter absorption”. Also, the “binding in the skin” value in [5] (lower layer of skin / dermis, in vitro vs. in vivo comparison) is “there are binding sites within the lower layer of skin which bind caffeine”. Besides, the Tmax in [6] is no more than 30 min. Further, the “increase in absorption, rat skin relative to human skin” value in data set [7] is roughly 8 fold. For the same molecule, the “time until appearance in the donor chamber” value in data set [8] (topical, human skin) was in the range of 6 to 12 h.

With `O=C1OC2(c3ccc(O)cc3Oc3cc(O)ccc32)c2ccccc21` [fluorescein], in [9], the “appearance of fluorescein in the flap” value is listed as “failure of the appearance of fluorescein in the flap”.

Turning to `CNC[C@H](O)c1cccc(O)c1` [phenylephrine], the “effect on local microcirculation” value in data set [10] is “decreased microcirculation”.

With `Nc1ncnc2c1ncn2[C@@H]1O[C@H](CO)[C@@H](O)[C@@H]1O` [vidarabine], in data set [11], the “metabolism by an enzyme in the skin, deaminase” value is “metabolized by an enzyme in the skin, deaminase”.
